Assay results: US7741337B2, “Azonafide derivatives, methods for their production and pharmaceutical compositions therefrom” (Unibioscreen S.A., priority 2005, dated 2010)
Counter-ions that a name gives are not always drawn. Like-named read-outs stand apart in the source and are kept apart here.

Legend:
[1] = tested on: human cancer cell lines Hs683, U-373MG, HCT-15, LoVo, A549 and MCF-7; experiment: MTT test, effect on overall cell growth (mean of six cell lines, examples 3 to 26); type: cell-based; settings: mean of six cell lines Hs683, U-373MG, A549, MCF-7, 72 hours incubation, range of molar concentrations resulting in 50% inhibition of overall tumor cells growth
Procedure: (§1) MTT tests were performed in order to rapidly, i.e. within 5 days, measure the effect of azonafide derivatives of this invention on the overall cell growth. The test measures the number of metabolically active living cells that are able to transform the yellow product 3-(4,5-dimethylthiazol-2-yl)-2,5-diphenyl tetrazolium bromide (herein referred as MTT) into the blue product formazan dye by mitochondrial reduction. The amount of formazan obtained at the end of the experiment, measured by means of a spectrophotometer, is directly proportional to the number of living cells. Optical density determination thus enables a quantitative measurement of the effect of the investigated compounds as compared to the control condition (untreated cells) and/or to other reference compounds.
(§2) Height human cancer cell lines described in table 1 were used in the following MTT tests. These cell lines cover six histological cancer types, being prostate, glioma, pancreas, colon, lung and breast cancers. Cells were allowed to grow in 96-well micro-wells with a flat bottom with an amount of 100 μl of cell suspension per well with 1,000 to 4,000 cells/well depending on the cell type used. Each cell line was seeded in a well known MEM 5% serum culture medium.
(§3) The detailed experimental procedure was as following: after a 24-hour period of incubation at 37° C., the culture medium was replaced by 100 μl of fresh medium in which the compound to be tested was dissolved at the following molar concentrations: 10^−9 M, 5.10^−9 M, 10^−8 M, 5.10^−8 M, 10^−7 M, 5.10^−7 M, 10^−6 M, 5.10^−6 M and 10^−5 M. Each experiment was repeated 6 times.
(§4) After 72 hours of incubation at 37° C. with (experimental conditions) or without (control condition) the compound to be tested, the medium was replaced by 100 μl MTT dissolved in RPMI at a concentration of 1 mg/ml. The micro-wells were subsequently incubated during 3 hours at 37° C. and centrifuged at 400 g during 10 minutes. MTT was removed and formazan crystals formed were dissolved in 100 μl DMSO. The micro-wells were shaken for 5 minutes and read on a spectrophotometer at wavelengths of 570 nm (maximum formazan absorbance) and 630 nm (back-ground noise).
(§5) For each experimental condition, the mean optical density was calculated, as well as the percentage of remaining living cells in comparison with the control.
(§6) IC50 values for compounds of examples 3 to 26 were obtained on cell lines Hs683, U-373MG, HCT-15, LoVo, A549 and MCF-7 described in Table 1. IC50 values for compounds from examples 27 to 45 were obtained on cell lines PC3, U-373MG, BxPC3, LoVo, A549 and MCF-7 described in Table 1.

[2] = tested on: U-373 MG (Glioma cancer) cells; experiment: Effect on cell migration, U-373MG; type: cell-based; settings: Homo sapiens, U373 MG, p value in same cell, read-out: Maximum effects (cell migration); for Emax at 1 µM: at 10^−6 M; for Emax at 0.1 µM: at 10^−7 M
Procedure: (§7) Cells of different cancer lines, i.e. U-373 MG (Glioma cancer), PC3 (prostate cancer and A549 (Lung cancer) were seeded on culture flask 48 hours before the migration experiment. On the test day, cells were treated with or without the azonafide derivatives mentioned in table 3 in closed Falcon dishes containing a buffered medium at a controlled temperature (37.0±0.1° C.) for 12 or 22 hours, as noted in the right column of table 3. The azonafide derivatives were used at three non-cytotoxic concentrations (10^−6 M, 10^−7, 10^−8 M). Migration of the cells was observed by means of a CCD-camera mounted on a phase-contrast microscope. Statistical analysis of the migration, with the non-parametric Mann-Whitney test, was established for 25% and 50% of the most motile cells and for the entire cell population.

A549 (Lung cancer) cells = experiment: Effect on cell migration, A549; type: cell-based; settings: Homo sapiens, p value in same cell, read-out: Maximum effects (cell migration); for Emax at 1 µM: at 10^−6 M
Procedure: as §7

[3] = tested on: U-373 MG, PC-3 and/or A549 cancer cells; experiment: Effect on cell migration, summary of table 3; type: cell-based, human; settings: for migration level of cancer cells: U-373 MG, PC-3 and/or A549 cancer cells at the non-cytotoxic concentrations of this study; for cell migration activity compared with the closest compounds known in the art: comparison drawn from table 3
Procedure: as §7

[4] = tested on: human cancer cell lines PC3, U-373MG, BxPC3, LoVo, A549 and MCF-7; experiment: MTT test, effect on overall cell growth (mean of six cell lines, examples 27 to 45); type: cell-based; settings: mean of six cell lines PC3, U-373MG, A549, MCF-7, 72 hours incubation, range of molar concentrations resulting in 50% inhibition of overall tumor cells growth
Procedure: as §1, §2, §3, §4, §5, §6

[5] = 22 hours on the 25% of most motile cells

SMILES: CN(C)CCN1C(=O)c2cccc3cc4cccc(N)c4c(c23)C1=O [Example 3, 11-amino-2-[2-(dimethylamino)ethyl]-1H-dibenzo[de,h]isoquinoline-1,3(2H)-dione, reference compound]
- IC50 [1]: 5 to 10 µM
- Emax at 1 µM [2, 5]: -31%

SMILES: COC(=O)Nc1cccc2cc3cccc4c3c(c12)C(=O)N(CCN(C)C)C4=O [Example 9, methyl {2-[2-(dimethylamino)ethyl]-1,3-dioxo-2,3-dihydro-1H-dibenzo[de,h]isoquinolin-11-yl}carbamate]
- IC50 [1]: 5 to 10 µM
- Emax at 0.1 µM ([2]; 12 and 22 hours on the 25% of most motile cells): -31%
- Emax at 1 µM (A549 (Lung cancer) cells; 12 hours on the 25% of most motile cells): -40%
- Emax at 1 µM (A549 (Lung cancer) cells; [5]): -28%
- migration level of cancer cells [3]: induced a decrease in the migration level
- cell migration activity compared with the closest compounds known in the art [3]: significantly greater cell migration activity than the closest compounds known in the art, or similar cell migration activity at significantly lower concentrations

SMILES: CN(C)CCN1C(=O)c2cccc3cc4cccc(NC(=O)Nc5ccc6c(c5)OCO6)c4c(c23)C1=O [Example 12, 1-(1,3-benzodioxol-5-yl)-3-{2-[2-(dimethylamino)ethyl]-1,3-dioxo-2,3-dihydro-1H-dibenzo[de,h]isoquinolin-11-yl}urea]
- IC50 [1]: 5 to 10 µM
- Emax at 0.1 µM [2, 5]: -20%
- migration level of cancer cells [3]: induced a decrease in the migration level

SMILES: CN(C)CCN1C(=O)c2cccc3cc4c(NC(=O)Nc5ccc6c(c5)OCO6)cccc4c(c23)C1=O [Example 14, 1-(1,3-benzodioxol-5-yl)-3-{2-[2-(dimethylamino)ethyl]-1,3-dioxo-2,3-dihydro-1H-dibenzo[de,h]isoquinolin-8-yl}urea]
- IC50 [1]: > 10 µM
- Emax at 1 µM (A549 (Lung cancer) cells; [5]): -24%
- migration level of cancer cells [3]: induced a decrease in the migration level

SMILES: CN(C)CCN1C(=O)c2cccc3cc4c(NC(=O)Nc5ccc6c(c5)OCO6)cccc4c(c23)C1=O [Example 15, 1-(1,3-benzodioxol-5-yl)-3-{2-[2-(dimethylamino)ethyl]-1,3-dioxo-2,3-dihydro-1H-dibenzo[de,h]isoquinolin-8-yl}urea hydrochloride]
- Emax at 1 µM [2, 5]: -51%
- cell migration activity compared with the closest compounds known in the art [3]: significantly greater cell migration activity than the closest compounds known in the art, or similar cell migration activity at significantly lower concentrations

SMILES: CCOC(=O)Nc1cccc2cc3cccc4c3c(c12)C(=O)N(CCN(C)C)C4=O [Example 17, ethyl {2-[2-(dimethylamino)ethyl]-1,3-dioxo-2,3-dihydro-1H-dibenzo[de,h]isoquinolin-11-yl}carbamate]
- IC50 [1]: > 10 µM
- Emax at 0.1 µM [2, 5]: -42%
- Emax at 0.1 µM (A549 (Lung cancer) cells; 22 hours on the 25% of most motile cells, at 10^−7 M): -44%
- migration level of cancer cells [3]: induced a decrease in the migration level
- cell migration activity compared with the closest compounds known in the art [3]: significantly greater cell migration activity than the closest compounds known in the art, or similar cell migration activity at significantly lower concentrations

SMILES: CN(C)CCN1C(=O)c2cccc3cc4cccc(NC(=O)Oc5ccc(F)cc5)c4c(c23)C1=O [Example 24, 4-fluorophenyl {2-[2-(dimethylamino)ethyl]-1,3-dioxo-2,3-dihydro-1H-dibenzo[de,h]isoquinolin-11-yl}carbamate]
- IC50 [1]: > 10 µM
- Emax at 0.01 µM (A549 (Lung cancer) cells; 22 hours on the 25% of most motile cells, at 10^−8 M): -31%
- migration level of cancer cells [3]: induced a decrease in the migration level
- cell migration activity compared with the closest compounds known in the art [3]: significantly greater cell migration activity than the closest compounds known in the art, or similar cell migration activity at significantly lower concentrations

SMILES: CC(C)COC(=O)Nc1cccc2cc3cccc4c3c(c12)C(=O)N(CCN(C)C)C4=O [Example 27, isobutyl {2-[2-(dimethylamino)ethyl]-1,3-dioxo-2,3-dihydro-1H-dibenzo[de,h]isoquinolin-11-yl}carbamate]
- IC50 [4]: > 10 µM
- Emax at 1 µM (A549 (Lung cancer) cells; [5]): -28%
- migration level of cancer cells [3]: induced a decrease in the migration level
